According to PubChem BioAssay AID328 (DTP/NCI, 2004):
Values joined by “and” are separate entries in the source; they are usually repeats but may differ in a detail not shown here. Identical values can stand only once. Toxic doses and inconclusive results are not listed.

System: BDF1 mice, P388 leukemia ip, median survival T/C
Test: NCI In Vivo Anticancer Drug Screen. Data for tumor model P388 Leukemia (intraperitoneal) in B6D2F1 (BDF1) mice
Conditions: endpoint: median survival time, higher = longer survival
Summary of the method: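 Antitumour effect was judged in vivo: survival in drug-treated mice, normalised to that of vehicle-dosed controls, gives the reported T/C.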

[1] = dose: 25.0 mg/kg/injection, schedule: Q04DX003 (ip), vehicle: Klucel (hydroxypropylcellulose) (HPC)
[2] = dose: 50.0 mg/kg/injection, schedule: Q04DX003 (ip), vehicle: Klucel (hydroxypropylcellulose) (HPC)
[3] = dose: 100.0 mg/kg/injection, schedule: Q04DX003 (ip), vehicle: Klucel (hydroxypropylcellulose) (HPC)
[4] = dose: 200.0 mg/kg/injection, schedule: Q04DX003 (ip), vehicle: Klucel (hydroxypropylcellulose) (HPC)
[5] = dose: 50.0 mg/kg/injection, schedule: Q01DX009 (ip), vehicle: saline with Tween-80
[6] = dose: 100.0 mg/kg/injection, schedule: Q01DX009 (ip), vehicle: saline with Tween-80
[7] = dose: 200.0 mg/kg/injection, schedule: Q01DX009 (ip), vehicle: saline with Tween-80
[8] = dose: 100.0 mg/kg/injection, schedule: Q04DX003 (ip), vehicle: saline sonified
[9] = dose: 200.0 mg/kg/injection, schedule: Q04DX003 (ip), vehicle: saline sonified

With `COC(=O)[C@@]12OC[C@]34[C@H]([C@@H](O)[C@@H]1O)[C@@]1(C)[C@H](O)C(=O)C=C(C)[C@@H]1C[C@H]3OC(=O)C(OC(C)=O)[C@@H]24` (stereo not given in full) the T/C (dose: 15.0 micrograms/kg/injection, schedule: Q01DX009 (ip), vehicle: saline + alcohol) was 100 % of control, the T/C (dose: 16.0 micrograms/kg/injection, schedule: Q01DX009 (ip), vehicle: saline + alcohol) was 100 % of control and the T/C (dose: 31.0 micrograms/kg/injection, schedule: Q01DX009 (ip), vehicle: saline + alcohol) was 90 % of control and 100 % of control. For the same compound, the T/C (dose: 62.0 micrograms/kg/injection, schedule: Q01DX009 (ip), vehicle: saline + alcohol) was 90 % of control and 104 % of control, the T/C (dose: 125.0 micrograms/kg/injection, schedule: Q01DX009 (ip), vehicle: saline + alcohol) was 115 % of control and the T/C (dose: 250.0 micrograms/kg/injection, schedule: Q01DX009 (ip), vehicle: saline + alcohol) was 110 % of control. For the same compound, the T/C (dose: 500.0 micrograms/kg/injection, schedule: Q01DX009 (ip), vehicle: saline + alcohol) was 120 % of control.
For `CCNC(C)(C)C(SS)c1ccc(Br)cc1` (stereo not given), the T/C (dose: 6.25 mg/kg/injection, schedule: Q01DX009 (ip), vehicle: water) was 100 % of control, the T/C (dose: 12.5 mg/kg/injection, schedule: Q01DX009 (ip), vehicle: water) was 92 % of control and the T/C (dose: 25.0 mg/kg/injection, schedule: Q01DX009 (ip), vehicle: water) was 96 % of control. For the same compound, the T/C (dose: 25.0 mg/kg/injection, schedule: Q04DX003 (ip), vehicle: water) was 102 % of control, the T/C (dose: 50.0 mg/kg/injection, schedule: Q01DX009 (ip), vehicle: water) was 101 % of control and the T/C (dose: 50.0 mg/kg/injection, schedule: Q04DX003 (ip), vehicle: water) was 100 % of control. The T/C (dose: 100.0 mg/kg/injection, schedule: Q01DX009 (ip), vehicle: water) was 109 % of control, the T/C (dose: 100.0 mg/kg/injection, schedule: Q04DX003 (ip), vehicle: water) was 102 % of control and the T/C (dose: 200.0 mg/kg/injection, schedule: Q01DX009 (ip), vehicle: water) was 101 % of control. The T/C (dose: 200.0 mg/kg/injection, schedule: Q04DX003 (ip), vehicle: water) was 106 % of control and the T/C (dose: 400.0 mg/kg/injection, schedule: Q04DX003 (ip), vehicle: water) was 90 % of control.
`COC(=O)/C=C/c1cccnc1` was tested, and the T/C [1] was 100 % of control, the T/C [2] was 90 % of control and the T/C [3] was 95 % of control. The T/C [4] was 90 % of control.
For `NNc1cnc2ccccc2n1`, the T/C (dose: 37.5 mg/kg/injection, schedule: Q04DX003 (ip), vehicle: saline with Tween-80) was 100 % of control, the T/C (dose: 75.0 mg/kg/injection, schedule: Q04DX003 (ip), vehicle: saline with Tween-80) was 191 % of control and the T/C (dose: 150.0 mg/kg/injection, schedule: Q04DX003 (ip), vehicle: saline with Tween-80) was 100 % of control.
With `Cc1cc(N)c(C)c([N+](=O)[O-])c1` the T/C [5] was 100 % of control, the T/C [6] was 100 % of control and the T/C [7] was 95 % of control.
In the case of `OC(OCCCCCCOC(O)C(Cl)(Cl)Cl)C(Cl)(Cl)Cl` (stereo not given), the T/C (dose: 100.0 mg/kg/injection, schedule: Q04DX003 (ip), vehicle: saline with Tween-80) was 95 % of control, the T/C (dose: 200.0 mg/kg/injection, schedule: Q04DX003 (ip), vehicle: saline with Tween-80) was 95 % of control and the T/C (dose: 400.0 mg/kg/injection, schedule: Q04DX003 (ip), vehicle: saline with Tween-80) was 90 % of control.
In the case of `[NH-]CC[S-].[NH-]CC[S-].[NH-]CC[S-].[NH-]CC[S-].[Ni+2].[Ni+2].[Ni]`, the T/C (dose: 2.0 mg/kg/injection, schedule: Q01DX009 (ip), vehicle: saline) was 105 % of control, the T/C (dose: 3.12 mg/kg/injection, schedule: Q04DX003 (ip), vehicle: saline) was 100 % of control and the T/C (dose: 4.0 mg/kg/injection, schedule: Q01DX009 (ip), vehicle: saline) was 100 % of control. The T/C (dose: 8.0 mg/kg/injection, schedule: Q01DX009 (ip), vehicle: saline) was 98 % of control and the T/C (dose: 16.0 mg/kg/injection, schedule: Q01DX009 (ip), vehicle: saline) was 87 % of control and 117 % of control.
With `CC(C)(C)C1CCC(C#N)(NNc2ccccc2)CC1` (stereo not given) the T/C (dose: 50.0 mg/kg/injection, schedule: Q01DX005 (ip), vehicle: saline with Tween-80) was 90 % of control, the T/C (dose: 100.0 mg/kg/injection, schedule: Q01DX005 (ip), vehicle: saline with Tween-80) was 106 % of control and the T/C (dose: 200.0 mg/kg/injection, schedule: Q01DX005 (ip), vehicle: saline with Tween-80) was 89 % of control.
In the case of `CC(C)(C)c1ccc(OCCCOc2ccc(C(=O)O)cc2)cc1`, the T/C (dose: 12.5 mg/kg/injection, schedule: Q04DX003 (ip), vehicle: saline sonified) was 95 % of control, the T/C (dose: 25.0 mg/kg/injection, schedule: Q04DX003 (ip), vehicle: saline sonified) was 95 % of control and the T/C (dose: 50.0 mg/kg/injection, schedule: Q04DX003 (ip), vehicle: saline sonified) was 91 % of control.
In the case of `CC(C)NCc1ccccc1Sc1ccccc1`, the T/C (dose: 100.0 mg/kg/injection, schedule: Q01DX001 (ip), vehicle: saline with Tween-80) was 101 % of control.
`O=C1CCCN1.O=C1CCCN1.[Br][Co][Br]` was tested, and the T/C (dose: 25.0 mg/kg/injection, schedule: Q01DX009 (ip), vehicle: saline) was 108 % of control, the T/C (dose: 44.0 mg/kg/injection, schedule: Q01DX009 (ip), vehicle: saline) was 109 % of control and the T/C (dose: 50.0 mg/kg/injection, schedule: Q01DX009 (ip), vehicle: saline) was 113 % of control. The T/C (dose: 50.0 mg/kg/injection, schedule: Q04DX003 (ip), vehicle: saline) was 105 % of control and the T/C (dose: 100.0 mg/kg/injection, schedule: Q04DX003 (ip), vehicle: saline) was 111 % of control.
With `Cc1c(N)nc(Br)c2ccccc12` the T/C [8] was 91 % of control and the T/C [9] was 116 % of control.
With `Cc1ccc2ccccc2c1NCCC(=O)O` the T/C (dose: 100.0 mg/kg/injection, schedule: Q01DX001 (ip), vehicle: Klucel (hydroxypropylcellulose) (HPC)) was 103 % of control, the T/C (dose: 200.0 mg/kg/injection, schedule: Q01DX001 (ip), vehicle: Klucel (hydroxypropylcellulose) (HPC)) was 96 % of control and the T/C (dose: 400.0 mg/kg/injection, schedule: Q01DX001 (ip), vehicle: Klucel (hydroxypropylcellulose) (HPC)) was 100 % of control.
In the case of `NNC(=O)CCCCCCCCCCCCCCCO`, the T/C [5] was 94 % of control.
For `CCn1cnc(-c2ccccc2)c1-c1ccccc1`, the T/C (dose: 12.5 mg/kg/injection, schedule: Q01DX009 (ip), vehicle: saline with Tween-80) was 100 % of control, the T/C (dose: 25.0 mg/kg/injection, schedule: Q01DX009 (ip), vehicle: saline with Tween-80) was 104 % of control and the T/C [5] was 100 % of control.
In the case of `O=C(Nc1ncccn1)C12CC3CC(CC(C3)C1)C2`, the T/C [5] was 88 % of control, the T/C [6] was 96 % of control and the T/C [7] was 93 % of control.
In the case of `Ic1ncnc2c1ncn2C1CCCO1` (stereo not given), the T/C (dose: 44.0 mg/kg/injection, schedule: Q01DX009 (ip), vehicle: saline sonified) was 100 % of control, the T/C (dose: 66.0 mg/kg/injection, schedule: Q01DX009 (ip), vehicle: saline sonified) was 123 % of control and the T/C (dose: 100.0 mg/kg/injection, schedule: Q01DX009 (ip), vehicle: saline sonified) was 114 % of control. The T/C [8] was 115 % of control, the T/C (dose: 150.0 mg/kg/injection, schedule: Q01DX009 (ip), vehicle: saline sonified) was 114 % of control and the T/C (dose: 200.0 mg/kg/injection, schedule: Q01DX009 (ip), vehicle: saline sonified) was 122 % of control. The T/C [9] was 120 % of control, the T/C (dose: 400.0 mg/kg/injection, schedule: Q01DX009 (ip), vehicle: saline sonified) was 100 % of control and the T/C (dose: 400.0 mg/kg/injection, schedule: Q04DX003 (ip), vehicle: saline sonified) was 105 % of control.
With `CC(=O)N(C)N(Cc1ccc(C#N)cc1)C(C)=O` the T/C [1] was 94 % of control, the T/C [2] was 100 % of control and the T/C [3] was 99 % of control. The T/C [4] was 100 % of control and the T/C (dose: 400.0 mg/kg/injection, schedule: Q04DX003 (ip), vehicle: Klucel (hydroxypropylcellulose) (HPC)) was 111 % of control.
With `CC(=O)OCCC/C(=C/c1ccc(/C=C(\CCCOC(C)=O)[N+](=O)[O-])cc1)[N+](=O)[O-]` the T/C [2] was 96 % of control, the T/C [3] was 101 % of control and the T/C [4] was 101 % of control.
For `CCC(O)(c1ccc(OC)cc1)C(c1ccccc1)c1ccccn1` (stereo not given), the T/C (dose: 31.25 mg/kg/injection, schedule: Q01DX009 (ip), vehicle: saline with Tween-80) was 103 % of control, the T/C (dose: 62.5 mg/kg/injection, schedule: Q01DX009 (ip), vehicle: saline with Tween-80) was 103 % of control and the T/C (dose: 125.0 mg/kg/injection, schedule: Q01DX009 (ip), vehicle: saline with Tween-80) was 100 % of control.
